Measured values published in patent US20050197350A1, “Novel quinoline, tetrahydroquinazoline, and pyrimidine derivatives and methods of treatment related to the use thereof” (TAISHO PHARMACEUTICAL CO., LTD., priority 2003, published 2005).

Each molecule was assayed on MCH receptors (assay: MCH receptor activity class (method not given)). Conditions: MCH receptor activity class 1-3 (percent of control at 10^-7 M or IC50).

SMILES	class
CN(C)c1ccnc(N[C@H]2CC[C@@H](CNC(=O)Nc3cc(Cl)cc(Cl)c3)CC2)n1 [compound 2439]	2 (Class 2: The value of percent of control at 10^−7 M was from 40% to 60% or the value of IC′50 was from 50 nM to 200 nM.)
CN(C)c1nc(N[C@H]2CC[C@@H](CNC(=O)Nc3c(F)cc(Br)cc3Br)CC2)nc2c1CCCC2 [compound 2463]	3 (Class 3 The value of percent of control at 10^−7 M was more than 60% or the value of IC50 was more than 200 nM.)

Same assay, conditions: MCH receptor; class by percent of control at 10^-7 M or IC50

SMILES	class
CN(C)c1nc(N[C@H]2CC[C@@H](NC(=O)Nc3cc(F)cc4c3OCOC4)CC2)nc2c1CCCC2 [compound 1920]	3 (Class 3 The value of percent of control at 10^−7 M was more than 60% or the value of IC50 was more than 200 nM.)
Cc1cc(C(=O)NC[C@H]2CC[C@@H](Nc3cc(N(C)C)c4ccccc4n3)CC2)ccc1F [compound 208, N-[(cis-4-{[4-(dimethylamino)quinolin-2-yl]amino}cyclohexyl)methyl]-4-fluoro-3-methylbenzamide]	3 (Class 3 The value of percent of control at 10^−7 M was more than 60% or the value of IC50 was more than 200 nM.)
COc1ccc(Br)c(C(=O)N[C@H]2CC[C@@H](Nc3cc(N(C)C)c4ccccc4n3)CC2)c1 [compound 121]	3 (Class 3 The value of percent of control at 10^−7 M was more than 60% or the value of IC50 was more than 200 nM.)
Cc1ccc(Cl)cc1NC(=O)N[C@H]1CC[C@@H](Nc2nc3c(c(N(C)C)n2)CCCC3)CC1 [compound 1900]	3 (Class 3 The value of percent of control at 10^−7 M was more than 60% or the value of IC50 was more than 200 nM.)

Same assay, conditions: activity class 1-3: percent of control at 10^-7 M or IC50

SMILES	class
CN(C)c1nc(N[C@H]2CC[C@@H](NC(=O)Nc3ccccc3I)CC2)nc2c1CCCC2 [compound 1678]	3 (Class 3 The value of percent of control at 10^−7 M was more than 60% or the value of IC50 was more than 200 nM.)
C[C@@H](CNC[C@H]1CC[C@@H](Nc2nccc(N(C)C)n2)CC1)N(Cc1ccccc1)Cc1ccccc1 [compound 1538]	3 (Class 3 The value of percent of control at 10^−7 M was more than 60% or the value of IC50 was more than 200 nM.)
CN(C)c1ccnc(N[C@H]2CC[C@@H](NC(=O)Oc3ccc4ccccc4c3)CC2)n1 [compound 1629]	3 (Class 3 The value of percent of control at 10^−7 M was more than 60% or the value of IC50 was more than 200 nM.)
CN(C)c1nc(N[C@H]2CC[C@@H](CNC(=O)OCC(Cl)(Cl)Cl)CC2)nc2c1CCCC2 [compound 1618]	3 (Class 3 The value of percent of control at 10^−7 M was more than 60% or the value of IC50 was more than 200 nM.)

Same assay, conditions: activity class per percent of control at 10^-7 M or IC50

SMILES	class
COc1ccc(OC)c(CN[C@H]2CC[C@@H](Nc3cc(N(C)C)c4ccccc4n3)CC2)c1 [compound 1088]	3 (Class 3 The value of percent of control at 10^−7 M was more than 60% or the value of IC50 was more than 200 nM.)
Cc1ccc2occ(CN[C@H]3CC[C@@H](Nc4cc(N(C)C)c5ccccc5n4)CC3)c(=O)c2c1 [compound 1107]	3 (Class 3 The value of percent of control at 10^−7 M was more than 60% or the value of IC50 was more than 200 nM.)
CN(C)c1nc(N[C@H]2CC[C@@H](NC(=O)c3ccccc3-c3ccccc3)CC2)nc2c1CCCC2 [compound 1031]	3 (Class 3 The value of percent of control at 10^−7 M was more than 60% or the value of IC50 was more than 200 nM.)
CN(C)c1cc(N[C@H]2CC[C@@H](CNCc3ccc4c(c3)OCCO4)CC2)nc2ccccc12 [compound 1142]	3 (Class 3 The value of percent of control at 10^−7 M was more than 60% or the value of IC50 was more than 200 nM.)

Same assay, conditions: class 1-3 by percent of control at 10^-7 M or IC50

SMILES	class
Cc1cc(C(=O)NC[C@H]2CC[C@@H](Nc3nccc(N(C)C)n3)CC2)nn1C(C)(C)C [compound 435, 1-tert-butyl-N-[(cis-4-{[4-(dimethylamino)pyriniidin-2-yl]amino}cyclohexyl)methyl]-5-methyl-1H-pyrazole-3-carboxamide]	3 (Class 3 The value of percent of control at 10^−7 M was more than 60% or the value of IC50 was more than 200 nM.)
Cc1ccc(C(=O)N[C@H]2CC[C@@H](Nc3nc4c(c(N(C)C)n3)CCCC4)CC2)c(F)c1F [compound 496]	3 (Class 3 The value of percent of control at 10^−7 M was more than 60% or the value of IC50 was more than 200 nM.)

Same assay, conditions: class by percent of control at 10^-7 M or IC50

SMILES	class
CN(C)c1ccnc(N[C@H]2CC[C@@H](NC(=O)c3cccc(C(=O)c4ccccc4)c3)CC2)n1 [compound 873]	2 (Class 2: The value of percent of control at 10^−7 M was from 40% to 60% or the value of IC′50 was from 50 nM to 200 nM.)
CN(C)c1nc(N[C@H]2CC[C@@H](NC(=O)Nc3ccc(C(F)(F)F)cc3)CC2)nc2c1CCCC2 [compound 1878]	3 (Class 3 The value of percent of control at 10^−7 M was more than 60% or the value of IC50 was more than 200 nM.)
CN(C)c1ccnc(N[C@H]2CC[C@@H](NC(=O)Nc3ccc(F)cc3F)CC2)n1 [compound 2181]	3 (Class 3 The value of percent of control at 10^−7 M was more than 60% or the value of IC50 was more than 200 nM.)
CN(C)c1ccnc(N[C@H]2CC[C@@H](NC(=O)CCC(=O)c3cccs3)CC2)n1 [compound 885]	3 (Class 3 The value of percent of control at 10^−7 M was more than 60% or the value of IC50 was more than 200 nM.)
CC(=O)c1cccc(C(=O)N[C@H]2CC[C@@H](Nc3nccc(N(C)C)n3)CC2)c1 [compound 831]	2 (Class 2: The value of percent of control at 10^−7 M was from 40% to 60% or the value of IC′50 was from 50 nM to 200 nM.)
CN(C)c1nc(N[C@H]2CC[C@@H](NCc3coc4ccc(Cl)cc4c3=O)CC2)nc2c1CCCC2 [compound 1355]	3 (Class 3 The value of percent of control at 10^−7 M was more than 60% or the value of IC50 was more than 200 nM.)
COc1ccc(NC(=S)N[C@H]2CC[C@@H](Nc3nccc(N(C)C)n3)CC2)c(OC)c1 [compound 2260]	2 (Class 2: The value of percent of control at 10^−7 M was from 40% to 60% or the value of IC′50 was from 50 nM to 200 nM.)
COc1cccc(CC(=O)NC[C@H]2CC[C@@H](Nc3nc4c(c(N(C)C)n3)CCCC4)CC2)c1 [compound 629]	3 (Class 3 The value of percent of control at 10^−7 M was more than 60% or the value of IC50 was more than 200 nM.)
CN(C)c1ccnc(N[C@H]2CC[C@@H](NC(=O)c3ccc(Br)o3)CC2)n1 [compound 833, 5-bromo-N-(cis-4-{[4-(dimethylamino)pyrimidin-2-yl]amino}cyclohexyl)-2-furamide]	1 (Class 1: The value of percent of control at 10^−7 M was less than 40% or the value of IC50 was less than 50 nM.)
CN(C)c1cc(N[C@H]2CC[C@@H](NC(=S)Nc3c(Cl)cc(Cl)cc3Cl)CC2)nc2ccccc12 [compound 2274, N-(cis-4-{[4-(dimethylamino)quinolin-2-yl]amino}cyclohexyl)-N′-(2,4,6-trichlorophenyl)thiourea]	2 (Class 2: The value of percent of control at 10^−7 M was from 40% to 60% or the value of IC′50 was from 50 nM to 200 nM.)
CN(C)c1nc(N[C@H]2CC[C@@H](CNC(=O)c3c(Cl)cccc3Cl)CC2)nc2c1CCCC2 [compound 656, 2,6-dichloro-N-[(cis-4-{[4-(dimethylamino)-5,6,7,8-tetrahydroquinazolin-2-yl]amino}cyclohexyl)methyl]benzamide]	2 (Class 2: The value of percent of control at 10^−7 M was from 40% to 60% or the value of IC′50 was from 50 nM to 200 nM.)
CN(C)c1nc(N[C@H]2CC[C@@H](CNCc3ccccc3SC(F)(F)F)CC2)nc2c1CCCC2 [compound 1407]	3 (Class 3 The value of percent of control at 10^−7 M was more than 60% or the value of IC50 was more than 200 nM.)
Cc1cccc([N+](=O)[O-])c1NC(=O)NC[C@H]1CC[C@@H](Nc2nc3c(c(N(C)C)n2)CCCC3)CC1 [compound 2493]	3 (Class 3 The value of percent of control at 10^−7 M was more than 60% or the value of IC50 was more than 200 nM.)
CN(C)c1cc(N[C@H]2CC[C@@H](CNCc3ccc(CO)o3)CC2)nc2ccccc12 [compound 1155]	3 (Class 3 The value of percent of control at 10^−7 M was more than 60% or the value of IC50 was more than 200 nM.)
CN(C)c1nc(N[C@H]2CC[C@@H](NC(=O)Nc3ccc(Br)cc3C(F)(F)F)CC2)nc2c1CCCC2 [compound 1722]	3 (Class 3 The value of percent of control at 10^−7 M was more than 60% or the value of IC50 was more than 200 nM.)
CN(C)c1ccnc(N[C@H]2CC[C@@H](NC(=O)c3ccccc3C(=O)c3cccc4ccccc34)CC2)n1 [compound 888]	3 (Class 3 The value of percent of control at 10^−7 M was more than 60% or the value of IC50 was more than 200 nM.)
COc1ccc(CNC(=O)N[C@H]2CC[C@@H](Nc3nc4c(c(N(C)C)n3)CCCC4)CC2)cc1 [compound 1835]	3 (Class 3 The value of percent of control at 10^−7 M was more than 60% or the value of IC50 was more than 200 nM.)
CN(C)c1cc(N[C@H]2CC[C@@H](CNCc3ccccc3OC(F)F)CC2)nc2ccccc12 [compound 1172]	3 (Class 3 The value of percent of control at 10^−7 M was more than 60% or the value of IC50 was more than 200 nM.)

Same assay, conditions: class by percent of control at 10^−7 M or IC50

SMILES	class
Cc1cnc(N[C@H]2CC[C@@H](CNC(=O)c3ccc(Cl)cc3)CC2)nc1N(C)C [compound 2710, 4-chloro-N-[(cis-4-{[4-(dimethylamino)-5-methylpyrimidin-2-yl]amino}cyclohexyl)methyl]benzamide]	2 (Class 2: The value of percent of control at 10^−7 M was from 40% to 60% or the value of IC′50 was from 50 nM to 200 nM.)
Cc1cnc(N[C@H]2CC[C@@H](NC(=O)c3ccc(Cl)cc3)CC2)nc1N(C)C [compound 2907, 4-chloro-N-(cis-4-{[4-(dimethylamino)-5-methylpyrimidin-2-yl]amino}cyclohexyl)benzamide]	1 (Class 1: The value of percent of control at 10^−7 M was less than 40% or the value of IC50 was less than 50 nM.)
Cc1ccc(C(=O)N[C@H]2CC[C@@H](Nc3nc(C)c(C)c(N(C)C)n3)CC2)cc1 [compound 2845, N-(cis-4-{[4-(dimethylamino)-5,6-dimethylpyrimidin-2-yl]amino}cyclohexyl)-4-methylbenzamide]	1 (Class 1: The value of percent of control at 10^−7 M was less than 40% or the value of IC50 was less than 50 nM.)
